In patent publication US8912179B2, “Heterocyclyl compounds as histamine H3 receptor ligands” (Suven Life Sciences Limited, priority 2010, dated 2014):

Assays:
[1] = Rodent brain penetration study; assay type: in vivo, Male Wister rats; conditions: brain / whole blood; Wistar male rat; one value per compound, table lists intravenous 1 mg/kg and per oral 3 mg/kg, water; read-out: Brain Penetration Ratio (Cb/Cp)
Experimental: Male Wister rats (230-280 grams) obtained from NIN (National Institute of Nutrition, Hyderabad, India) was used as experimental animals. Three animals were housed in each cage. Animals were given water and food ad libitum throughout the experiment, and maintained on a 12 hours light/dark cycle.
New chemical entity (NCE) was dissolved in suitable vehicle and administered orally (3 or 10 mg/kg). Around Tmax (i.e, 0.5 hour, 1.0 hour and 2.0 hours) animals were sacrificed. Blood and brain tissue were collected and brain was homogenized to yield 20% w/v. Blood was stored at 2-8° C. and brain homogenate was frozen at −20° C. until analysis. The concentrations of NCE in blood and brain were quantified using LC-MS/MS method.
The NCE was quantified in blood and brain homogenate by partially validated LC-MS/MS method using acetonitrile precipitation technique. NCE compounds were quantified in the calibration range of 1-500 ng/mL in blood and brain homogenate. Study samples were analyzed using calibration samples in the batch and quality control samples spread across the batch. Extents of brain-blood ratio were calculated (Cb/Cp).

[2] = Rodent pharmacokinetic study; assay type: in vivo, Male Wistar rats; conditions: whole blood, Wistar male rat; for AUC(0-t) / Cmax / Tmax / half-life: water, blood; for bioavailability: per oral 3 mg/kg vs intravenous 1 mg/kg
Experimental: Male Wistar rats (230-280 grams) obtained from NIN (National Institute of Nutrition, Hyderabad, India) were used as an experimental animal. Three animals were housed in each cage. Animals were kept fasted over night and maintained on a 12 hours light/dark cycle. Three rats were dosed New chemical entity (NCE) orally (3 or 10 mg/kg) and intravenously (1 or 5 mg/kg) on day 0 and day 2.
At each time point blood was collected by jugular vein. Blood was stored at 2-8° C. until analysis. The concentrations of the NCE compound in blood were determined using LC-MS/MS method. Schedule time points: Pre dose 0.08, 0.25, 0.5, 1, 2, 4, 6, 8 and 24 hours after dosing (n=3). The NCE compounds were quantified in blood by partially validated LC-MS/MS method using acetonitrile precipitation technique. NCE compounds were quantified in the calibration range of 1-2000 ng/mL in blood. Study samples were analyzed using calibration samples in the batch and quality control samples spread across the batch.
Pharmacokinetic parameters were calculated by non-compartmental model using software WinNonlin version 5.0.1.

[3] = target: Histamine H3 receptor (UniProt Q9Y5N1); test: Binding assay for human or rat histamine H3 receptor ([3H] R-α-methylhistamine); conditions: [3H] R-α-methylhistamine 3.0 nM; rat brain frontal cortex or recombinant human receptor in CHO cells (not specified which)
Experimental: Compounds can be evaluated according to the following procedures.
• Receptor source: Rat brain frontal cortex or recombinant human cDNA expressed in CHO cells • Radioligand: [^3H] R-α-methylhistamine • Final ligand concentration—[3.0 nM] • Non-specific determinant: R-α-methylhistamine (100 uM) • Reference compound: R-α-methylhistamine • Positive control: R-α-methylhistamine Incubation Conditions:
Increasing concentrations of test compounds or standard were incubated with membrane receptors and radioligand in 5 mM MgCl2 and 50 mM TRIS-HCl (pH 7.4) for 60 minutes at room temperature. The reaction was terminated by rapid vacuum filtration onto the glass fiber filters. Radioactivity trapped onto the filters was determined and compared to the control values in order to ascertain any interactions of the test compound(s) with either cloned human or rat receptor binding site.

[4] = test system: rats; test: Morris water maze, reversal of scopolamine induced amnesia; assay type: in vivo, rat; conditions: p.o., dose giving reversal
Experimental: The cognition-enhancing properties of compounds of this invention were estimated by using this model.
The water maze apparatus consisted of a circular pool (1.8 m diameter, 0.6 m high) constructed in black Perspex (TSE systems, Germany) filled with water (24±2° C.) and positioned underneath a wide-angled video camera to track animal. The 10 cm^2 perspex platform, lying 1 cm below the water surface, was placed in the centre of one of the four imaginary quadrants, which remained constant for all rats. The black Perspex used in the construction of the maze and platform offered no intramaze cues to guide escape behavior. By contrast, the training room offered several strong extramaze visual cues to aid the formation of the spatial map necessary for escape learning. An automated tracking system, [Videomot 2 (5.51), TSE systems, Germany] was employed. This program analyzes video images acquired via a digital camera and an image acquisition boards that determined path length, swim speed and the number of entries and duration of swim time spent in each quadrant of the water maze.

[5] = test system: Male Wister rats; test: Object recognition task model; assay type: in vivo, rat; conditions: for Exploration time mean ± S.E.M, Familiar object / Exploration time mean ± S.E.M, Novel object: choice trial T2, 24 hours after T1
Experimental: The cognition enhancing properties of compounds of this invention were estimated by using this model.
Male Wister rats (230-280 grams) obtained from N. I. N. (National Institute of Nutrition, Hyderabad, India) was used as experimental animals. Four animals were housed in each cage. Animals were kept on 20% food deprivation before one day and given water ad libitum throughout the experiment and maintained on a 12 hours light/dark cycle. Also the rats were habituated to individual arenas for 1 hour in the absence of any objects.
One group of 12 rats received vehicle (1 mL/Kg) orally and another set of animals received compound of the formula (I) either orally or i.p., before one hour of the familiar (T1) and choice trial (T2).
The experiment was carried out in a 50×50×50 cm open field made up of acrylic. In the familiarization phase, (T1), the rats were placed individually in the open field for 3 minutes, in which two identical objects (plastic bottles, 12.5 cm height×5.5 cm diameter) covered in yellow masking tape alone (a1 and a2) were positioned in two adjacent corners, 10 cms from the walls. After 24 hours of the (T1) trial for long-term memory test, the same rats were placed in the same arena as they were placed in T1 trial. Choice phase (T2) rats were allowed to explore the open field for 3 minutes in presence of one familiar object (a3) and one novel object (b) (Amber color glass bottle, 12 cm high and 5 cm in diameter). Familiar objects presented similar textures, colors and sizes. During the T1 and T2 trial, explorations of each object (defined as sniffing, licking, chewing or having moving vibrissae whilst directing the nose towards the object at a distance of less than 1 cm) were recorded separately by stopwatch. Sitting on an object was not regarded as exploratory activity, however, it was rarely observed. • T1 is the total time spent exploring the familiar objects (a1+a2). • T2 is the total time spent exploring the familiar object and novel object (a3+b).
The object recognition test was performed as described by Ennaceur, A., Delacour, J., 1988, A new one-trial test for neurobiological studies of memory in rats—Behavioural data, Behav. Brain Res., 31, 47-59.

[6] = test system: rats; test: Inhibition of food intake; assay type: in vivo, rat; conditions: p.o., rats fasted 18 hours
Experimental: The anti-obesity properties of compounds of this invention were estimated using this model
The experiment consisted of 6 days. The rats were adapted to the 18 hours fasting and 6 hours feeding pattern. The animals were housed in a group of three in the cages provided with the fasting grills and was fasted for 18 hours. After 18 hours fasting the rats were separated and placed individually in the cage. Weighed amount of feed was provided to rats for 6 hours and the feed intake at 1 hour, 2 hours, 4 hours and 6 hours was measured
Again the rats were regrouped and fasted for 18 hours. The above procedure was followed for 5 days. The average cumulative food intake by the rats on the last 3 days was calculated. Animals were randomized on the basis of their previous three days food intake. On the day of experiment the rats were orally treated test compounds or vehicle. After 60 minutes, the feed was provided to the rats and the food intake at 1 hour, 2 hours, 4 hours and 6 hours was measured. The food intake by the rats treated with test compound was compared with the vehicle treated group by using Unpaired Student's t test.

Structure (SMILES)	Kp [1]	AUC(0-t) ([2]; intravenous, 1 mg/kg) [ng·h/mL]	Cmax ([2]; intravenous, 1 mg/kg) [ng/mL]	Tmax ([2]; intravenous, 1 mg/kg) [min]	half-life ([2]; intravenous, 1 mg/kg) [min]	bioavailability [2] [%]	AUC(0-t) ([2]; per oral, 3 mg/kg) [ng·h/mL]	Cmax ([2]; per oral, 3 mg/kg) [ng/mL]	Tmax ([2]; per oral, 3 mg/kg) [min]	half-life ([2]; per oral, 3 mg/kg) [min]	Ki [3] [nM]	Reversal of Scopolamine Induced amnesia [4]	Inference ([5]; 3 mg/kg p.o.)	Exploration time mean ± S.E.M, Familiar object ([5]; 3 mg/kg p.o.) [s]	Exploration time mean ± S.E.M, Novel object ([5]; 3 mg/kg p.o.) [s]	also measured
CCC(=O)N1CCc2nc(OC3CCN(C4CCC4)CC3)sc2C1.O=C(O)C(O)C(O)C(=O)O [Example 1, 1-[2-(1-Cyclobutyl-piperidin-4-yloxy)-6,7-dihydro-4H-thiazolo[5,4-c]pyridin-5-yl]-propan-1-one tartrate]	1.97 ± 0.24	356 ± 61	436 ± 118	4.8	58.8 ± 7.8	49 ± 5	524 ± 51	329 ± 23	25.2 ± 8.4	57 ± 4.2	3.83	≦10 mg/kg, p.o.	Active	7.8 ± 1.80	23.95 ± 3.15	
O=C(C1CC1)N1CCc2nc(OC3CCN(C4CCC4)CC3)sc2C1.O=C(O)C(O)C(O)C(=O)O [Example 4, [2-(1-Cyclobutyl-piperidin-4-yloxy)-6,7-dihydro-4H-thiazolo[5,4-c]pyridin-5-yl]-cyclopropyl-methanone tartrate]	2.17 ± 0.17	348 ± 7	320 ± 62	4.8	75 ± 6.6	39 ± 8	407 ± 89	199 ± 48	40.2 ± 17.4	100 ± 12.6	7.2	≦10 mg/kg, p.o.				Inference ([5]; 10 mg/kg p.o.): Active; Exploration time mean ± S.E.M, Familiar object ([5]; 10 mg/kg p.o.): 7.8 ± 1.36 s; Exploration time mean ± S.E.M, Novel object ([5]; 10 mg/kg p.o.): 20.32 ± 2.22 s; Inhibition of food intake [6]: 20 mg/kg, p.o.
O=C(C1CCC1)N1CCc2nc(OC3CCN(C4CCC4)CC3)sc2C1.O=C(O)C(O)C(O)C(=O)O [Example 5, Cyclobutyl-[2-(1-cyclobutyl-piperidin-4-yloxy)-6,7-dihydro-4H-thiazolo[5,4-c]pyridin-5-yl]-methanone tartrate]	3.08 ± 0.45	155 ± 38	287 ± 58	4.8	25.8 ± 6	25 ± 1	117 ± 34	101 ± 37	25.2 ± 8.4	34.2 ± 6	3.3	≦3 mg/kg, p.o.	Active	7.15 ± 0.91	11.44 ± 1.58	
O=C(CN1CCOCC1)N1CCc2nc(OC3CCN(C4CCC4)CC3)sc2C1.O=C(O)C(O)C(O)C(=O)O [Example 12, 1-[2-(1-Cyclobutyl-piperidin-4-yloxy)-6,7-dihydro-4H-thiazolo[5,4-c]pyridin-5-yl]-2-morpholin-4-yl-ethanone tartrate]		334 ± 39	237 ± 38	4.8	172 ± 49.2	43 ± 17	417 ± 120	151 ± 18	49.8 ± 17.4	171 ± 22.8	8.44	≧20 mg/kg, p.o.				
CC(C)C(=O)N1CCc2nc(OC3CCN(C4CCC4)CC3)sc2C1.O=C(O)C(O)C(O)C(=O)O [Example 22, 1-[2-(1-Cyclobutyl-piperidin-4-yloxy)-6,7-dihydro-4H-thiazolo[5,4-c]pyridin-5-yl]-2-methyl-propan-1-one tartrate]	2.1 ± 0.13	110 ± 15	205 ± 47	4.8	30 ± 3	65 ± 24	206 ± 56	189 ± 56	25.2 ± 8.4	32.4 ± 6.6	9.5					
O=C(C1CCOCC1)N1CCc2nc(OC3CCN(C4CCC4)CC3)sc2C1 [Example 28, [2-(1-Cyclobutyl-piperidin-4-yloxy)-6,7-dihydro-4H-thiazolo[5,4-c]pyridin-5-yl]-(tetrahydro-pyran-4-yl)-methanone]		282 ± 23	370 ± 25	4.8	40.2 ± 3.6	82 ± 38	701 ± 328	286 ± 40	49.8 ± 17.4	57 ± 16.8	39	≧10 mg/kg, p.o.				Inference ([5]; 0.3 mg/kg p.o.): Active; Exploration time mean ± S.E.M, Familiar object ([5]; 0.3 mg/kg p.o.): 6.12 ± 1.22 s; Exploration time mean ± S.E.M, Novel object ([5]; 0.3 mg/kg p.o.): 11.44 ± 1.69 s
